The values below come from ChEMBL document CHEMBL4715706, “Discovery of Benzotriazolo[4,3-d][1,4]diazepines as Orally Active Inhibitors of BET Bromodomains” (ACS Med Chem Lett, 2016).

Bounds are passed on as bounds.

The nature of data set [1]: Volume of distribution at steady state in rat at 1 mg/kg, iv. The format is ADME, organism-based. Particulars: in vivo, read-out: Vdss.
A short description of data set [2]: Oral bioavailability in rat at 10 mg/kg. The format is ADME, organism-based. The conditions noted are these: in vivo.
The target of data set [3] is SWI/SNF-related matrix-associated actin-dependent regulator of chromatin subfamily A member 4 (Homo sapiens, UniProt P51532). Kind of data set: Inhibition of His-tagged BRG1 (unknown origin) using biotinylated acetylated peptide as substrate measured after 20 mins by AlphaLISA assay.
Chain of SWI/SNF-related matrix-associated actin-dependent regulator of chromatin subfamily A member 4 (P51532 whole entry): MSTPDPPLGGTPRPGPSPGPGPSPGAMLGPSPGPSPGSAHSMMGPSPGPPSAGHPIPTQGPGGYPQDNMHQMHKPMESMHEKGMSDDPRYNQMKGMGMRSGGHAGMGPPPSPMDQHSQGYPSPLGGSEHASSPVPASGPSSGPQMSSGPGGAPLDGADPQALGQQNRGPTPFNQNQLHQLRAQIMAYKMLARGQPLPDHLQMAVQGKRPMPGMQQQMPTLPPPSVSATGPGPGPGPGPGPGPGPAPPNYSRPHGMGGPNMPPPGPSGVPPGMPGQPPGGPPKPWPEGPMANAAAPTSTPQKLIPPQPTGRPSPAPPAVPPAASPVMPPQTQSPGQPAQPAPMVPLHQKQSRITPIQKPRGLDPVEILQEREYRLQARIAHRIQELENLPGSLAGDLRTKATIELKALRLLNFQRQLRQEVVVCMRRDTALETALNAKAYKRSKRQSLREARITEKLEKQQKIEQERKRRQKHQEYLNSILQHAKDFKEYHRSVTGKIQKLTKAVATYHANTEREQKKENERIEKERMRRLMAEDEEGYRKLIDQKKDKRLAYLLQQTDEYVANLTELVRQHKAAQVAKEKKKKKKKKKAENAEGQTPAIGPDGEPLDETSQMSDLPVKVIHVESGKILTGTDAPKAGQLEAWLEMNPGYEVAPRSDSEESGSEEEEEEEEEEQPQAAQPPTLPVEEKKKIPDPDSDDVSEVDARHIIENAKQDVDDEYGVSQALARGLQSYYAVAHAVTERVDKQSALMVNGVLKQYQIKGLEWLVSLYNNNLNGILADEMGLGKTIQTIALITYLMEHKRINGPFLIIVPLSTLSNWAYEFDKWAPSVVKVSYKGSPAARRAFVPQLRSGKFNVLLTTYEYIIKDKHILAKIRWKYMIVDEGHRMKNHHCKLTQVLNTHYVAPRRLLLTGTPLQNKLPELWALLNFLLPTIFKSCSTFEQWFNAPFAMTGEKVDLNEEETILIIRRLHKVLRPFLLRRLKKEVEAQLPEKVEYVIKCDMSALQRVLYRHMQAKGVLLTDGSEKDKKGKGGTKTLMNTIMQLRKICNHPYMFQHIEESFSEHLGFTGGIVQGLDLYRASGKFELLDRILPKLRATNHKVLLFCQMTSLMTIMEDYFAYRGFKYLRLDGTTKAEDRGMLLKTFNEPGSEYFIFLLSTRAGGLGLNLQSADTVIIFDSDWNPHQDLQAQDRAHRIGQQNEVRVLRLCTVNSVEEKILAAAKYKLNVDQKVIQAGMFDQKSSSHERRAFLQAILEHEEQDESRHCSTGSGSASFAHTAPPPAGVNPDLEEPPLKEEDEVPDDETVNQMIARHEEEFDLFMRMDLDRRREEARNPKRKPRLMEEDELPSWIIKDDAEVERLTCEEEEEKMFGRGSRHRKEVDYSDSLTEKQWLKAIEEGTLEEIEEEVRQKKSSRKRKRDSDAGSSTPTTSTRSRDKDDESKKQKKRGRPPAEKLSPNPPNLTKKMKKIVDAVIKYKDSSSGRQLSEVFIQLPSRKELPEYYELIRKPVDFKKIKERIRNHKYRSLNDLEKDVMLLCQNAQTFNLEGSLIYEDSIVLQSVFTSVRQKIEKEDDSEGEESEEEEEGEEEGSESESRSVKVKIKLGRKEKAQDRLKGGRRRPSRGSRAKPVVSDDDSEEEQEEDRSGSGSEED
The target in data set [4] is Bromodomain testis-specific protein (Homo sapiens, UniProt Q58F21). The data set is described as follows: Inhibition of BRDT BD1 (unknown origin) using biotinylated JQ1 analog as substrate measured after 20 mins by AlphaLISA assay.
In data set [5] the target is T1, Peregrin (Homo sapiens, UniProt P55201).
T1 sequence (P55201 whole entry): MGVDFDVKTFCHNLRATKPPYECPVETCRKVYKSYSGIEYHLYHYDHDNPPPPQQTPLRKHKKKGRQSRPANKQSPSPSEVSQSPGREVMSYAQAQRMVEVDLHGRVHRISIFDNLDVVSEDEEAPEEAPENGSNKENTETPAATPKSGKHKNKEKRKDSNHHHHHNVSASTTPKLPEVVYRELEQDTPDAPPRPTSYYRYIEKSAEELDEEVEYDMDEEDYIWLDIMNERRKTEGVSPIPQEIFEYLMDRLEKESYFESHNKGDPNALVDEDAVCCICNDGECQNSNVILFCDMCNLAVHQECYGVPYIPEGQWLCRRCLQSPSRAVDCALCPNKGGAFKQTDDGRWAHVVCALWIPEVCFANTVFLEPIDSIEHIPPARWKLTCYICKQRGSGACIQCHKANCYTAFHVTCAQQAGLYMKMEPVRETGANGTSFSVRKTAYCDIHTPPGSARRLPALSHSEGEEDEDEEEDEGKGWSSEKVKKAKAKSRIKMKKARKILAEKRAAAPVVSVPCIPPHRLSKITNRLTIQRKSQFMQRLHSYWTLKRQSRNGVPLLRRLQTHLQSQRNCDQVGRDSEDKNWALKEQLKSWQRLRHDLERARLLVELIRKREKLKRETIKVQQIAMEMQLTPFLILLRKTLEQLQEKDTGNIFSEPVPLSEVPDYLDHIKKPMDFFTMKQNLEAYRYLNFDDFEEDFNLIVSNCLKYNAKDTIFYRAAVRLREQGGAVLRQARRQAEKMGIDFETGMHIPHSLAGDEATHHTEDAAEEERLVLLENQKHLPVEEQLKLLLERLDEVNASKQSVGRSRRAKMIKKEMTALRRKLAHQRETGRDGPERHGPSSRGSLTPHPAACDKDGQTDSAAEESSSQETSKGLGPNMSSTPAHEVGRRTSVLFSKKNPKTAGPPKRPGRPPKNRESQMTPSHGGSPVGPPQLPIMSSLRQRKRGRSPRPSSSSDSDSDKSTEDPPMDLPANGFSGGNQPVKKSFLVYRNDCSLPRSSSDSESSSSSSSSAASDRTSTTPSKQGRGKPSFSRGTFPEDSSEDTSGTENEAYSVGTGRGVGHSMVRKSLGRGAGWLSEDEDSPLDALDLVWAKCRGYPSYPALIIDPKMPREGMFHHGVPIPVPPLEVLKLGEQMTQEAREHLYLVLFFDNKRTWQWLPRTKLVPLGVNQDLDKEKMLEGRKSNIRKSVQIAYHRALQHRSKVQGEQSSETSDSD
The data set is described as follows: Inhibition of BRPF1 (unknown origin) measured after 70 mins by TR-FRET assay.

Data set [6] can be described thus: Intrinsic clearance in dog liver microsomes.
The nature of data set [7]: Half life in rat at 10 mg/kg, po. The format is ADME, organism-based. Particulars: in vivo.
Data set [8] in a line: Intrinsic clearance in human liver microsomes.
Data set [9] can be described thus: Protein binding in rat plasma. The format is ADME, cell-free. The conditions noted are these: read-out: PPB (converted).
For data set [10], the target named is T2, Bromodomain-containing protein 2 (Homo sapiens, UniProt P25440). The data set is described as follows: Inhibition of BRD2 BD2 (unknown origin) using biotinylated JQ1 analog as substrate measured after 20 mins by AlphaLISA assay.
T2 sequence (P25440 whole entry): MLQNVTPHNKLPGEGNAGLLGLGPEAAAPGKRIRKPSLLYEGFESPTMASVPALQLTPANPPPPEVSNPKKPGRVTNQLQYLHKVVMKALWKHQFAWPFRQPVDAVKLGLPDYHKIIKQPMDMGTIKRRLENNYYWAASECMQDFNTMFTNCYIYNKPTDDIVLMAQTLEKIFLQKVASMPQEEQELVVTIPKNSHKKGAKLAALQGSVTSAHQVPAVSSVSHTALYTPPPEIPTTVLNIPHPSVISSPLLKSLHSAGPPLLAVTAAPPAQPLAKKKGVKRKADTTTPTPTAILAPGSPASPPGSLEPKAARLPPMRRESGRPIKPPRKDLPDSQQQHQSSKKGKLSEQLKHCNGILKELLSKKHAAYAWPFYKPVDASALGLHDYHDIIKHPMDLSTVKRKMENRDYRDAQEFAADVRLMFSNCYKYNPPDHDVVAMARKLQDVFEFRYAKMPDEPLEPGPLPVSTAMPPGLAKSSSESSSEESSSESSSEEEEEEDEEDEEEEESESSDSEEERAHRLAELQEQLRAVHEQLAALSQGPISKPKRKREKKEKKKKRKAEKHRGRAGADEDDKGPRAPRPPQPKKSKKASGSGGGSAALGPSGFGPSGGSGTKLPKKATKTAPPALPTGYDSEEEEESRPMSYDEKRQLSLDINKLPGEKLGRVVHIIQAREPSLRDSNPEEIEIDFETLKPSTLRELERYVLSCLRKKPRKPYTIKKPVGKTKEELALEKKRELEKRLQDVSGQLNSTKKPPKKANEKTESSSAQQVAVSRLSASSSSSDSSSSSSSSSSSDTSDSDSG
Data set [11] deals with T3, Bromodomain-containing protein 9 (Homo sapiens, UniProt Q9H8M2).
T3 sequence (Q9H8M2 whole entry): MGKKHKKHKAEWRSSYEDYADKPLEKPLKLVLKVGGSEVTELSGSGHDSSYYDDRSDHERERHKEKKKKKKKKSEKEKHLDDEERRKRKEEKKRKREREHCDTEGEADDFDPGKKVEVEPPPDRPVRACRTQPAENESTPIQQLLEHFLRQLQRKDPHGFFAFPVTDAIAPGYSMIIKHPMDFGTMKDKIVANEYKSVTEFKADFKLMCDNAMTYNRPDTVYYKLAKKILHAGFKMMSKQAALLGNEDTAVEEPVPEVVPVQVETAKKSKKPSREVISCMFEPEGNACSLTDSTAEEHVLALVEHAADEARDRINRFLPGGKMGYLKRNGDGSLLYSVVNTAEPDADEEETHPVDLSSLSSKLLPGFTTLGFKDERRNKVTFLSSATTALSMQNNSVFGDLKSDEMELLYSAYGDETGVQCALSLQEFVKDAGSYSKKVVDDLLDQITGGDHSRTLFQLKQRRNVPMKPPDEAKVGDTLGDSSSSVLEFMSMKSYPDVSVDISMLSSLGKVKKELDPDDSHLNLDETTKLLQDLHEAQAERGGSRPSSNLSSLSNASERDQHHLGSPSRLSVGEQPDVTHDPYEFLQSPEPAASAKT
The data set is described as follows: Inhibition of His-tagged BRD9 (unknown origin) using biotinylated acetylated peptide as substrate measured after 20 mins by AlphaLISA assay.

The target in data set [12] is Bromodomain-containing protein 3 (Homo sapiens, UniProt Q15059). The data set is described as follows: Inhibition of BRD3 BD1 (unknown origin) using biotinylated JQ1 analog as substrate measured after 20 mins by AlphaLISA assay.
Chain of Bromodomain-containing protein 3 (Q15059 whole entry): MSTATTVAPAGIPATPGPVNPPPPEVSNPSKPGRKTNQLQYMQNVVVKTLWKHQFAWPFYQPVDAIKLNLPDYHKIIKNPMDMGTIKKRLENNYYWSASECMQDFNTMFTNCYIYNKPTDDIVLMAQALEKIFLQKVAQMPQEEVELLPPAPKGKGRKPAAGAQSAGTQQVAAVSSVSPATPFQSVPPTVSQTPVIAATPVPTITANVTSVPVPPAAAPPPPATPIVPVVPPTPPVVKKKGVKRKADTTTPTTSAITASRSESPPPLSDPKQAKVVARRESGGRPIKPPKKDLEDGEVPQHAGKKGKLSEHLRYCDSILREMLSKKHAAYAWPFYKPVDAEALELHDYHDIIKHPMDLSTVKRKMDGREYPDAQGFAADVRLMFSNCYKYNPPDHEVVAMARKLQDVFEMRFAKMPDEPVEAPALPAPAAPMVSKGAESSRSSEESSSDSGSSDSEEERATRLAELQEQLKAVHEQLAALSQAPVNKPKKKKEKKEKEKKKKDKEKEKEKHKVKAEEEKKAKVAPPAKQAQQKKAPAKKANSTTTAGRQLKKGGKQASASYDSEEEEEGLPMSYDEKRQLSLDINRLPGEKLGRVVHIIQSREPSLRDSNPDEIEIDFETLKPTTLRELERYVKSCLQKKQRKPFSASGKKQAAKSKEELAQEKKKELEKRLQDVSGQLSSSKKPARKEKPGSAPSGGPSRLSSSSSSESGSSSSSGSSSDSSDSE
For data set [13], the target named is T4, Bromodomain-containing protein 4 (Homo sapiens, UniProt O60885). The data set is described as follows: Inhibition of BRD4 BD2 (unknown origin) using biotinylated JQ1 analog as substrate measured after 20 mins by AlphaLISA assay.
A short description of data set [14]: Protein binding in mouse plasma.
Data set [15] can be described thus: Inhibition of BET in human THP-1 cells assessed as suppression of LPS-induced IL-6 release measured after 16 hrs by chemiluminescence ELISA. The format is cell-based. Particulars: THP-1, 16 h.
A short description of data set [16]: Cmax in rat at 10 mg/kg, po. The format is ADME, organism-based. On the set-up: route oral, dose 10 mg/kg. The conditions noted are these: in vivo.
Data set [17] addresses T4, Bromodomain-containing protein 4.
Description: Inhibition of His/FLAG-tagged BRD4 BD1 (unknown origin) using histone H4-TetraAcetylated-biotin peptide as substrate incubated for 20 mins by AlphaLISA assay
The target of data set [18] is T2, Bromodomain-containing protein 2. Kind of data set: Inhibition of BRD2 BD1 (unknown origin) using biotinylated JQ1 analog as substrate measured after 20 mins by AlphaLISA assay.

For the molecule `Cc1nnc2n1-c1ccc(-c3ccc(N)nc3)cc1N(c1ccc(Cl)cc1)C[C@H]2C`, the Vd in [1] was 2.2 L/kg. The molecule further came in with a bioavailability in data set [2] of 23%. Moreover, the half-inhibitory concentration (IC50) in data set [3] was more than 15000 nM; in data set [4], 3 nM; in [5] it was more than 15000 nM; in [10], 3 nM; in [11], more than 15000 nM; in data set [12] it was 3 nM. Besides, the IC50 in [13] was found to be 3 nM; in data set [17] it was 15 nM; in data set [18], 3 nM. Further, the microsomal CLint is 19 µL/min/mg in data set [6] and 5.1 µL/min/mg in data set [8]. The same molecule gave a half-life in data set [7] of 1.8 h. In addition, the values for the fraction unbound in [9] and in data set [14] were 0.04 and 0.02, respectively. In addition, the EC50 in [15] amounted to 13 nM. Moreover, the peak level in data set [16] (Cmax) was 290 nM.
